Measurements taken from PMC7883873, “Discovery of New Catalytic Topoisomerase II Inhibitors for Anticancer Therapeutics” (Frontiers in Oncology, 2021).
One block for each molecule: values may come before it.

Experiments:
[1] = test system: salmon sperm DNA; test: Ethidium bromide displacement assay; assay type: binding; conditions: increasing doses; 100 µg/ml DNA, 2 µg/ml ethidium bromide
Method: Ethidium bromide displacement assay was performed as previously described ([49], [50]) using Amsacrine (mAMSA) as a positive control. In a 20 µl reaction, compounds were mixed with 100 µg/ml of salmon sperm DNA and 2 µg/ml of ethidium bromide in a fluorescence buffer containing 10 mM HEPES, pH 7.9, 100 mM KCl, 5 mM MgCl2, 0.1 mM EDTA, pH 8.0. Triplicate reactions were subjected to fluorescence emission of 590 nm and excitation of 535 nm. Signals were detected by using the Multimode Microplate Reader, Infinite® F500.

[2] = biological target: T1, TOP2A (Homo sapiens, UniProt P11388); test: DNA relaxation assay (supercoiled pHOT-1 plasmid); assay type: biochemical; parameters: full-length human TOP2A and TOP2B protein (TopoGEN and Inspiralis respectively); purchased TopoGEN TG1001 (human TOP2 assay kit); conditions: Figure 3B
T1 sequence (P11388 whole entry): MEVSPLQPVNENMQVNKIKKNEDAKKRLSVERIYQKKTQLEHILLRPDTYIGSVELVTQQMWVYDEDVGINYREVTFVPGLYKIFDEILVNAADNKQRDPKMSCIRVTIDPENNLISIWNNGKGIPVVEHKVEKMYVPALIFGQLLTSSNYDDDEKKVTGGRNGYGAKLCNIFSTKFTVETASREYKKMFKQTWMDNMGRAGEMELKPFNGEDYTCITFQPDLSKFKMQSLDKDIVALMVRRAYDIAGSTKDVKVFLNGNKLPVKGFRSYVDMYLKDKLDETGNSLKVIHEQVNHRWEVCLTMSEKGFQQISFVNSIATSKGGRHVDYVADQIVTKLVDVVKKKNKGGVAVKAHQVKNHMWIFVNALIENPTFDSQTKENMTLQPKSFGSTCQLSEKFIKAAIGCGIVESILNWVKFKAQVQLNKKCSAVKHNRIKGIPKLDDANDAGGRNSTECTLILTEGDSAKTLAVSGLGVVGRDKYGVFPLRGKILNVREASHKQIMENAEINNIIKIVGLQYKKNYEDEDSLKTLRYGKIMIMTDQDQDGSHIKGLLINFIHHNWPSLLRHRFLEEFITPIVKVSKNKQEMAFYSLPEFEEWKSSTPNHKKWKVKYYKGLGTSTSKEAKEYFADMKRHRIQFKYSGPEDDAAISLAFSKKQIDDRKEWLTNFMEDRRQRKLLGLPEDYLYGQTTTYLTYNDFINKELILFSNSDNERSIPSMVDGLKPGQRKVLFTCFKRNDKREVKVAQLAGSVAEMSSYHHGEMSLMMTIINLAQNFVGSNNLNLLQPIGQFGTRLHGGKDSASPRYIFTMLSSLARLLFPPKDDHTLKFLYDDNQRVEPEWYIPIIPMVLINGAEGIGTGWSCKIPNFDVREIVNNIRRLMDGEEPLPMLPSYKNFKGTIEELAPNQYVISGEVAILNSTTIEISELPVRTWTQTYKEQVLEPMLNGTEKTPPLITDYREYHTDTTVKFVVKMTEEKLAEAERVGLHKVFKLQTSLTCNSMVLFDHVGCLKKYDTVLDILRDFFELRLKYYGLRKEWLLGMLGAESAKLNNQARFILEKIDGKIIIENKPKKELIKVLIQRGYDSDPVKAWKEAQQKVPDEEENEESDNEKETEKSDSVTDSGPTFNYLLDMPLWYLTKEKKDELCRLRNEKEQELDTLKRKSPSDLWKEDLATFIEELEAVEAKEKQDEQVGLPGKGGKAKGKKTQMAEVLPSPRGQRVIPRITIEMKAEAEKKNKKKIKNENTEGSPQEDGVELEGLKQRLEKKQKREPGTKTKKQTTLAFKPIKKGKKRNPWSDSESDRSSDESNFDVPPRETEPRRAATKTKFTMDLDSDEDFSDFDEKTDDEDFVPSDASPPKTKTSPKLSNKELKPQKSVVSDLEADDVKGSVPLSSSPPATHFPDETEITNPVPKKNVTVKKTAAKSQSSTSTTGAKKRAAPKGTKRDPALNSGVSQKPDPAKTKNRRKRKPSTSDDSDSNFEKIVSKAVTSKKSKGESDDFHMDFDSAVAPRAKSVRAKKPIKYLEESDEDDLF
Method: (§1) The human TOP2A and TOP2B were used to perform DNA relaxation assays. […] The reaction was incubated at 37C for 2 h and stopped by adding 2 µl of 10% SDS and 1 µl of 250 mM of EDTA, followed by the addition of 50 µg/ml of proteinase K at 45 C for 1 h. The reaction was then resolved by electrophoresis on a 1% agarose gel at 80 V and stained with 0.5 µg/ml ethidium bromide for 15 min. DNA bands were visualized using a gel imager (Gel Doc™ EZ System) and quantified using the Image Studio™ Lite Quantification Software.

[3] = biological target: T1, TOP2A; test: K-DNA decatenation assay; assay type: biochemical; parameters: full-length human TOP2A and TOP2B protein (TopoGEN and Inspiralis respectively); purchased TopoGEN TG1001 (human TOP2 assay kit); conditions: Figure 3A
Method: (§2) The human TOP2 assay kit (#TG1001, TopoGEN, Buena Vista, CO) and TOP2B (HTB205, Inspiralis, UK) were used for K-DNA decatenation assays. […] The reaction was incubated at 37C for 2 h after which 4 µl stop solution (5× buffer is 5% Sarkosyl, 0.125% bromophenol blue, 25% glycerol) was added. The reaction was resolved by electrophoresis on a 0.8% agarose gel at 60 V and stained with 0.5 µg/ml ethidium bromide for 15 min. DNA bands were visualized using a gel imager (Gel Doc™ EZ System) and quantified using the Image Studio™ Lite Quantification Software.

[4] = biological target: T1, TOP2A; test: Relaxation and K-DNA decatenation assays of candidates and T60 derivatives (SAR); assay type: biochemical; parameters: full-length human TOP2A and TOP2B protein (TopoGEN and Inspiralis respectively); purchased TopoGEN TG1001 (human TOP2 assay kit); conditions: compared with T60
Method: as §2, §1

[5] = biological target: T1, TOP2A; test: DNA cleavage assay; assay type: biochemical; parameters: full-length human TOP2A and TOP2B protein (TopoGEN and Inspiralis respectively); purchased TopoGEN TG1001 (human TOP2 assay kit); conditions: 200 µM, buffer without ATP
Method: (§3) The reactions were incubated in 37C for 30 min and stopped by adding 2 µl of 10% SDS and 1 µl of 250 mM of EDTA, followed by the addition of 50 µg/ml of proteinase K at 45C for 30 min. The reaction was then resolved by electrophoresis on a 1% agarose gel containing […] ethidium bromide in TAE buffer at 60 V. DNA bands were visualized using a gel imager (Gel Doc™ EZ System) and quantified by using the Image Studio™ Lite Quantification Software.

[6] = biological target: TOP2B (Homo sapiens, UniProt Q02880); test: DNA cleavage assay; assay type: biochemical; parameters: full-length human TOP2A and TOP2B protein (TopoGEN and Inspiralis respectively); purchased Inspiralis HTB205; conditions: 200 µM, buffer without ATP
TOP2B, sequence (Q02880 whole entry): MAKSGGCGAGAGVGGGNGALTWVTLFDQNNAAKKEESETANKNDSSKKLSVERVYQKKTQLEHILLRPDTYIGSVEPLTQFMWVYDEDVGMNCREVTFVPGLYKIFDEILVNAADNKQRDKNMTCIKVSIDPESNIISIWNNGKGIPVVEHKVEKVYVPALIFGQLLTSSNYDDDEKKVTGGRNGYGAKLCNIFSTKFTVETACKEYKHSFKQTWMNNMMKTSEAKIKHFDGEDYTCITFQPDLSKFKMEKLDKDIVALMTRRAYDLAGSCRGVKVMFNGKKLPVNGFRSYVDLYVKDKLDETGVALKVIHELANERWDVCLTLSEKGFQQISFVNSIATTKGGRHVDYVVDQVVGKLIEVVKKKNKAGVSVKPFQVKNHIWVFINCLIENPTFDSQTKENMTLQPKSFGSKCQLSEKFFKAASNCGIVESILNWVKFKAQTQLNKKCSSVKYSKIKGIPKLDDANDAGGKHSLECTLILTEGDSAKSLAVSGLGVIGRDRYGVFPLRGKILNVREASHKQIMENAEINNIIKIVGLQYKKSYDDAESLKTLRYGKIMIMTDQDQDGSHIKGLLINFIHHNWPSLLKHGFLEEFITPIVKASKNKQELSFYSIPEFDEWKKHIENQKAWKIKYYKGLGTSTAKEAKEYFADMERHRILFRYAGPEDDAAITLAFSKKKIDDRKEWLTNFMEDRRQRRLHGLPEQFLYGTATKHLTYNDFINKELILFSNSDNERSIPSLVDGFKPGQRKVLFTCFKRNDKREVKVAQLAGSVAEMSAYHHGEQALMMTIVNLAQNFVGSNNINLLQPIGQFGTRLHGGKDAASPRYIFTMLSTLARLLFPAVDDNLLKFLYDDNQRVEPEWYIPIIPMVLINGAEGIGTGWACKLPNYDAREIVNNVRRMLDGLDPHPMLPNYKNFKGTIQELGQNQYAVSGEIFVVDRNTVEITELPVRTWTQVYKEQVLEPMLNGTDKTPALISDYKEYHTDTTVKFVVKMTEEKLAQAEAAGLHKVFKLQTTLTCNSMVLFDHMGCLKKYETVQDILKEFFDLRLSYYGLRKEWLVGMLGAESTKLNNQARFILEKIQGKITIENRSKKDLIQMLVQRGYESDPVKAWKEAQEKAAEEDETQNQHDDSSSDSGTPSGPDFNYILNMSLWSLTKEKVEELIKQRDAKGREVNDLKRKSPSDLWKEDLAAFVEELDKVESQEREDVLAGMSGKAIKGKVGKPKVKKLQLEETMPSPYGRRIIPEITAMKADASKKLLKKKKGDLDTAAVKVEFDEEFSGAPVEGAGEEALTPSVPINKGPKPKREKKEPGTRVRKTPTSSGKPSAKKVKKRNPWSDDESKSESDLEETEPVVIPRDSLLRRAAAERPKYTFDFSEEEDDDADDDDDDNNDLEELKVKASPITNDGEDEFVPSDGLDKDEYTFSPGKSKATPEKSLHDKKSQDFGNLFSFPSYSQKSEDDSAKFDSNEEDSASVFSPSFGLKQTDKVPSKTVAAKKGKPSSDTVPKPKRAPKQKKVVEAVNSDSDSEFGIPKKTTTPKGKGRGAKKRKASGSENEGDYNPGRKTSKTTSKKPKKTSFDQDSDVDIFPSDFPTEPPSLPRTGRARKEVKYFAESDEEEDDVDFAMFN
Method: as §3

[7] = test system: K562 xenografts; test: K562 xenografts, intra-tumor polymeric paste; assay type: in vivo, nude mice (Nu/Nu); conditions: single 30 µl paste, 1% T60 or T633, 0.3% etoposide
Method: The polymeric paste was prepared with 50% poly-DL-lactide-coglycolide (PLGA) and 50% PEG 300 (w/w) as we have reported ([57]). […] The density of the paste was determined to be 1.2 g/ml ( ± 3%). One million K562 cells were inoculated subcutaneously in bilateral flanks of nude mice (Nu/Nu). […] Tumor volumes were measured every three days and were calculated by length × width × depth × 0.5236. Mice were euthanized when tumor volumes reached 15% of body weight or weight loss >20% occurred. The remaining mice were euthanized after the control group was euthanized. All animal procedures were under the guidelines of the Canadian Council on Animal Care and were approved by the UBC Animal Care Committee (# A19-0256).

[8] = biological target: T2, TOP2A (431–1193) (Homo sapiens, UniProt P11388); test: Bio-Layer Interferometry (BLI) assay; assay type: binding
T2 construct: was incorporated with TOP2A (431–1193); made in house; host or cells: Escherichia coli BL21 co-expressing biotin ligase
T2 sequence (P11388 431-1193): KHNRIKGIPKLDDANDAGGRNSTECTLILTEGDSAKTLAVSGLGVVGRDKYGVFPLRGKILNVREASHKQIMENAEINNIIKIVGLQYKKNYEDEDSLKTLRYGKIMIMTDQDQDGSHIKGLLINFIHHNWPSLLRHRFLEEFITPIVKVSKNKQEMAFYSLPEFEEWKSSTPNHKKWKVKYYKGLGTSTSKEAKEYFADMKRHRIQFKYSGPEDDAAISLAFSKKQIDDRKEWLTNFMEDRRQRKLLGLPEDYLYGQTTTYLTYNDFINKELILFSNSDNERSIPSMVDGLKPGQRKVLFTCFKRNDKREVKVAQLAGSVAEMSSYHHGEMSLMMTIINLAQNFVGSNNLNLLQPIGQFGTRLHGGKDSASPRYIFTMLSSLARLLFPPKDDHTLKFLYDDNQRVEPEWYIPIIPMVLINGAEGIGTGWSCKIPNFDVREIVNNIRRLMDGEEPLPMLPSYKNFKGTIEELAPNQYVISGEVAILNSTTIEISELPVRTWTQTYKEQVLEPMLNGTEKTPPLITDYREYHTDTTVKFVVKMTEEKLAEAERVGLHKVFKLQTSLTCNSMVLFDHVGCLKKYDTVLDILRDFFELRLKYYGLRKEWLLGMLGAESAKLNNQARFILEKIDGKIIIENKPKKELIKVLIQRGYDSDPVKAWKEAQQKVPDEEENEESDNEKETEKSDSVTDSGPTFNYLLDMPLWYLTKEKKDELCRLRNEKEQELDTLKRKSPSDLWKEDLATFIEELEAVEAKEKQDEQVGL
Method: BLI assays were performed as we previously reported ([33]). The direct and reversible interactions between small molecules and TOP2 protein were quantified by BLI using OctetRED (ForteBio, Bohemia, NY). Human TOP2A (431–1,193) was produced in situ with AviTag technology. The AviTag sequence ([…]) followed by a six-residue glycine serine linker (GSGSGS) was incorporated with TOP2A (431–1193). Escherichia coli BL21 containing both biotin ligase and TOP2A (431–1193) vectors were induced with 0.5 mM isopropyl-β-D-thiogalactopyranoside (IPTG) and biotin at 16C overnight. The bacteria were then lysed by sonication, and the resulting lysate was purified by immobilized metal ion affinity chromatography (IMAC) with nickel nitrilotriacetic acid (NiNTA) resin and cation-exchange chromatography (HiTrap SP). Purified TOP2A (431–1193) (50 μg/ml) was bound to the super-streptavidin sensors over 50 min at room temperature. The sensor was kept in an assay buffer [20 mM N-2-hydroxyethylpiperazine-N0 -2-ethanesulfonic acid (HEPES), 150 mM NaCl, 500 μM tris(2-carboxyethyl) phosphine (TCEP), and 1% dimethylsulfoxide (DMSO)], when small molecules were added. After 200 s, a wash buffer was used to flush the sensor plate for 100 s. BLI signal was recorded throughout the 300 s following the manufacture’s instruction from OctetRED (ForteBio, Bohemia, NY).

[9] = biological target: TOP2B full-length (Homo sapiens, UniProt Q02880 1-1626); test: EMSA; 2 uM protein, 300 nM DNA, 3 mM Mg2+, no inhibitor; 20 mM HEPES-NaOH pH 7.4, 2 mM DTT, 3 mM MgCl2, 0.05% NP-40, protease inhibitors, 0.1 ug poly[dI:dC] in 20 ul, 30 min at 37 C; 4% native gel in 0.5x TBE; conditions: protein: commercial; label: IRDye700; blunt; self-complementary strand, 2 copies
TOP2B full-length, sequence (Q02880 whole entry): as the sequence (Q02880 whole entry) above

[10] = biological target: TOP2A full-length (Homo sapiens, UniProt P11388 1-1531); test: as above; conditions: protein: commercial; label: IRDye700; blunt; self-complementary strand, 2 copies
TOP2A full-length, sequence (P11388 whole entry): as the sequence (P11388 whole entry) above

[11] = biological target: TOP2A (431-1193) (Homo sapiens, UniProt P11388 431-1193); test: EMSA; 30 uM protein, 300 nM DNA, 3 mM Mg2+, no inhibitor; 20 mM HEPES-NaOH pH 7.4, 2 mM DTT, 3 mM MgCl2, 0.05% NP-40, protease inhibitors, 0.1 ug poly[dI:dC] in 20 ul, 30 min at 37 C; 4% native gel in 0.5x TBE; conditions: protein: recombinant; (NiNTA purified); label: IRDye700; blunt; self-complementary strand, 2 copies
TOP2A (431-1193), sequence (P11388 431-1193): as the sequence (P11388 431-1193) above

Molecule: COc1cc(NS(C)(=O)=O)ccc1Nc1c2ccccc2nc2ccccc12 [m-AMSA, Amsacrine, reference compound]
Fluorescence of ethidium bromide/DNA complex (DNA intercalation) [1]: reduced

Molecule: ICRF193 [reference compound]
Inhibition of TOP2A activity changing supercoiled into relaxed plasmid DNA [2]: inhibited | Inhibition of TOP2A mediated K-DNA decatenation [3]: inhibited

Molecule: COc1cc([C@@H]2c3cc4c(cc3[C@@H](O[C@@H]3O[C@@H]5CO[C@@H](C)O[C@H]5[C@H](O)[C@H]3O)[C@H]3COC(=O)[C@H]23)OCO4)cc(OC)c1O [etoposide]
Induction of linear plasmid (DNA cleavage) with TOP2A [5]: induced detectable linear plasmid | Induction of linear plasmid (DNA cleavage) with TOP2B [6]: induced detectable linear plasmid | Tumor volumes versus vehicle group at the end of four weeks [7]: statistically lower than the vehicle group

Molecule: Cc1cc(Nc2ccccc2)ccc1NC(=O)c1ccc[nH]c1=S [T633]
Activity on TOP2 [4]: stronger activities than T60 | Hill slope, BLI ([8]; dose-response 0-50 μM): 5±1.5 | Kd ([8]; dose-response 0-50 μM, estimated): 35 ± 3 µM | Binding to TOP2A (431–1193), BLI curves ([8]; increasing concentrations): reversible and dose-response binding | Tumor growth at the end of two weeks [7]: strongly inhibit tumor growth comparable to etoposide

B1: 5ZRF (dsDNA)
DNA 1: AGCCGAGCTGCAGCTCGGCT
DNA 2: AGCCGAGCTGCAGCTCGGCT
binding result [9]: binds | binding result [10]: binds | binding result [11]: binds

Further lines, results first:

Activity on TOP2 [4]: stronger activities than T60
Molecule: O=C(Nc1ccc(Nc2ccccc2)cc1O)c1ccc[nH]c1=S [T634]

Activity on TOP2 [4]: nearly inactive
Molecule: O=C(Nc1ccc(Nc2ccccc2)cc1)c1c[nH]cnc1=S [T636]

Activity on TOP2 [4]: complete abolishment of T60 activity
Molecule: CN(C(=O)c1ccc[nH]c1=S)c1ccc(Nc2ccccc2)cc1 [T627]

Activity on TOP2 [4]: stronger activities than T60
Molecule: Cc1cc(NC(=O)c2ccc[nH]c2=S)ccc1Nc1ccccc1 [T630]

Activity on TOP2 [4]: nearly inactive
Molecule: O=C(Nc1ccc(Nc2ccccc2)cc1)c1ccnnc1S [T635]

Activity on TOP2 [4]: increased activity
Molecule: O=C(Nc1ccc(Nc2ccc(O)cc2)cc1)c1ccc[nH]c1=S [T625]

Activity on TOP2 [4]: increased activity
Molecule: O=C(Nc1ccc(Nc2ccccc2O)cc1)c1ccc[nH]c1=S [T620]

Activity on TOP2 [4]: most active compound
Molecule: O=C(Nc1ccc(Nc2ccccc2)cc1)c1ccccc1S [T609]
